Laboratory results: patent US20240132477A1, “Benzimidazole Derivatives and Their Use As Inhibitors of ITK For The Treatment of Skin Disease” (PFIZER INC., priority 2020, published 2024)

Key:
[1] = target: IL-2-Inducible T-Cell Kinase (ITK) (Homo sapiens (Human), UniProt Q08881); experiment: ITK enzyme assay; type: biochemical; settings: geometric mean of count n; ITK FL enzyme, BTK peptide substrate
Protocol: IL-2-Inducible T-Cell Kinase (ITK) Activity, IC50 (uM)
ITK activity was determined by measuring the effect of a test compound in an ITK enzyme assay.
1.0 M HEPES Buffer pH 7.5 solution was prepared as follows: 238.3 g HEPES free acid (Sigma) and 800 mL of water were combined, and the mixture was stirred until complete dissolution. The pH was adjusted to 7.5 via titration with 5N NaOH and the volume adjusted to 1000 mL. The solution was filtered and sterilized.
ITK assay buffer was prepared as follows: 50 mL of HPLC-grade water was treated with 2 mL of 1.0 M HEPES Buffer, 500 μL of 2% Gelatin (Sigma), 1.0 mL of aqueous MgCl2 solution (1.0 M), and 1.0 mL of aqueous glutathione solution (0.5 M), and the solution was mixed. The solution was brought to 99 mL in a graduated cylinder by addition of water and sterilized through a 0.2 μm filter. 0.1 mL of Brij-35™ Surfact-AmpS™ Detergent Solution (10% w/v aqueous solution, ThermoFisher) and 1.0 mL of ATP (Teknova, 100 mM) were added and the solution was mixed.
Preparation of 1.33×ITK enzyme solution was as follows: 49.99 mL of ITK assay buffer was treated with 4.1 μL of ITK enzyme (ITK FL (N-Flag and C-His tagged, ˜72 kDa) Lake Pharma, 0.25 mg/ml in a buffer containing 25 mM Tris pH 7.8, 150 mM NaCl, 10% glycerol and 2 mM TCEP) and the mixture was gently agitated. The resulting solution was stored on ice. 30 Minutes prior to use, the enzyme solution was removed from ice and equilibrated to RT by incubation in a RT water bath.
Preparation of 4×ITK substrate solution was as follows: 50 mL of ITK assay buffer was treated with 100 μL of BTK peptide (China Peptide Company, 2 mM stock solution in DMSO). The tube was capped, mixed by gently inverting the tube, and then stored on ice. 30 Minutes prior to use, the substrate solution was removed from ice and equilibrated to RT by incubation in a RT water bath.
At the time of assay, 7.5 μL of the 1.33×ITK enzyme solution was added to plate wells containing 0.1 μL of varying concentrations of test compound in DMSO. The plate was incubated 30 min at RT. The plate wells were each treated with 2.5 uL of the 4×ITK substrate solution and the plate was sealed (TopSeal™, Perkin Elmer). The plate was spun at 1000 rpm for 30 sec and then incubated for 60 min at RT. The seal was removed, and each well was treated with 10 μL of Stop/Detect Buffer (20 mM HEPES pH 7.5, 0.01% gelatin, 1 nM LANCE PT66 (Perkin Elmer), 16.5 μg/ml Surelight APC (Perkin Elmer), 10 mM EDTA, 250 mM NaCl). The plate was again covered and was spun at 1000 rpm for 30 seconds. The plate was allowed to incubate overnight at RT and in a closed carrier to reduce dehydration. The seal was removed, and the fluorescence was read with a plate reader with […]. The concentrations and resulting effect values for the tested compound were plotted and the concentration of compound required for 50% effect (IC50) was determined with the four-parameter logistic dose response equation.

[2] = test system: IL-2 in supernatants from activated CD4+ human T-cells; experiment: IL-2 inhibition in supernatants from activated CD4+ human T-cells (cisbio HTRF); type: cell-based; settings: T-cell; geometric mean of count n; activated CD4+ human T-cells, 20 to 24 hrs; read-out: IL-2 IC50
Protocol: IL-2-Inhibition Activity, IC50 (uM)
IL-2 inhibition activity in supernatants from activated CD4+ human T-cells was determined by measuring the effect of a test compound on the activity using the cisbio HTRF™ technology.
Human CD4+ T cells were activated with CD3/CD28 for 3 days and expanded for an additional 4-6 days (7 to 9 days total). On day 0, frozen CD4+ T cells were thawed, treated with CD3/CD28 Dynabeads, and incubated at 37° C./5% CO2. On day 3, the beads were removed, and the cells were diluted to 5×10^5 cells/cm^2, placed in G-Rex10 flask, and incubated at 37° C./5% CO2. On day 7 to day 9 the cells were removed from the G-Rex flasks, counted and diluted back to 1×10^6 cells/ml in standard tissue culture flask.
The expanded CD4+ T-cells were centrifuged at 300×g for 10 minutes and resuspended to 0.5 million cells per ml (30,000 cells/well). 60 μl of CD4+ T cells were added per well to a 384 well plate containing 0.1 μL of varying concentrations of test compound in DMSO. The plates were incubated for 15 min at 37° C./5% CO2. 20 μl of diluted ImmunoCult™ (STEMCELL Technologies, 1:12.5 in T cell assay media) were added to all wells of the plate (1:50 final assay concentration). The plates were incubated for an additional 20 to 24 hrs at 37° C./5% CO2. The plates were centrifuged at 300×g for 10 minutes. 16 μL of supernatant was removed and combined with 4 μl of IL-2 HTRF Abs. (cisbio kit). Plates were incubated for 3 hours at RT and read with an EnVision plate reader at 665 nm and 615 nm wavelengths. The concentrations and resulting effect values for the tested compound were plotted and the concentration of compound required for 50% effect (IC50) was determined with the four-parameter logistic dose response equation.

Sequence of IL-2-Inducible T-Cell Kinase (ITK) (Q08881 whole entry): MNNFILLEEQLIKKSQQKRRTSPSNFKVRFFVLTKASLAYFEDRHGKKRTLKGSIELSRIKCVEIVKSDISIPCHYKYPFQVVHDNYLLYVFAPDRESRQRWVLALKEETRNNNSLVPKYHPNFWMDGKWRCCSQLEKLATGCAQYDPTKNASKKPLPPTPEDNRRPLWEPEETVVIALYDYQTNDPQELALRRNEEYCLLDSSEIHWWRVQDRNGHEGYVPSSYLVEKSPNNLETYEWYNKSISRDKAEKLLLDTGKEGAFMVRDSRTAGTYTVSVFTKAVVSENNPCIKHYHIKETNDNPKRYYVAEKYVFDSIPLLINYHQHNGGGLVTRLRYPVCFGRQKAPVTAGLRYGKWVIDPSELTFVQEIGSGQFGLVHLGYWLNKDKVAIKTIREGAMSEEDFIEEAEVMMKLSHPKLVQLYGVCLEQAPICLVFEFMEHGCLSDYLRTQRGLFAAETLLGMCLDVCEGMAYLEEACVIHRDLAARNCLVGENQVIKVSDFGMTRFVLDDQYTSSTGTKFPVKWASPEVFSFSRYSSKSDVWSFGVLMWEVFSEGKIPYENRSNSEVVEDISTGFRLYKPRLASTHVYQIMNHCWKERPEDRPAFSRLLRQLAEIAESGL

| Compound | IC50 [1] [nM] | IC50 [2] [nM] |
| --- | --- | --- |
| Cc1cc2[nH]c(-c3n[nH]c4c3C[C@@H]3C[C@]3(C)C4)nc2cc1N(C)C(=O)CN1CCCOC1=O [Example 1, N-Methyl-N-(6-methyl-2-((4aS,5aR)-5a-methyl-1,4,4a,5,5a,6-hexahydrocyclopropa[f]indazol-3-yl)-1H-benzo[d]imidazol-5-yl)-2-(2-oxo-1,3-oxazinan-3-yl)acetamide] | 3 | 59 |
| CC(=O)N(C)c1ccc2[nH]c(-c3n[nH]c4c3C[C@H]3C(F)(F)[C@@]3(C)C4)nc2c1 [Example 3, N-(2-((4aR,5aS)-5,5-difluoro-5a-methyl-1,4,4a,5,5a,6-hexahydrocyclopropa[f]indazol-3-yl)-1H-benzo[d]imidazol-5-yl)-N-methylacetamide] | 821 | 848 |
| CCN(C(C)=O)c1cc2nc(-c3n[nH]c4c3C[C@@H]3C[C@]3(C)C4)[nH]c2cc1C [Example 5, N-ethyl-N-(6-methyl-2-((4aS,5aR)-5a-methyl-1,4,4a,5,5a,6-hexahydrocyclopropa[f]indazol-3-yl)-1H-benzo[d]imidazol-5-yl)acetamide] | 16 | 86 |
| CC(=O)N(C)c1cc2nc(-c3n[nH]c4c3C[C@@H]3C[C@]3(C)C4)[nH]c2c(F)c1C [Example 8, N-(7-fluoro-6-methyl-2-((4aS,5aR)-5a-methyl-1,4,4a,5,5a,6-hexahydrocyclopropa[f]indazol-3-yl)-1H-benzo[d]imidazol-5-yl)-N-methylacetamide] | 20 | 129 |
| CC(=O)N(C)c1cc2nc(-c3n[nH]c4c3C[C@@H]3C[C@]3(C)C4)[nH]c2cc1Br [Example 9, N-(6-bromo-2-((4aS,5aR)-5a-methyl-1,4,4a,5,5a,6-hexahydrocyclopropa[f]indazol-3-yl)-1H-benzo[d]imidazol-5-yl)-N-methylacetamide] | 20 | 139 |
| C[C@H](C(=O)N(C)c1cc(F)c2nc(-c3n[nH]c4c3C[C@@H]3C[C@]3(C)C4)[nH]c2c1)N1CCCOC1=O [Example 10, (R)-N-(4-fluoro-2-((4aS,5aR)-5a-methyl-1,4,4a,5,5a,6-hexahydrocyclopropa[f]indazol-3-yl)-1H-benzo[d]imidazol-6-yl)-N-methyl-2-(2-oxo-1,3-oxazinan-3-yl)propenamide] | 49 | 342 |
| C[C@@H](C(=O)N(C)c1cc(F)c2nc(-c3n[nH]c4c3C[C@@H]3C[C@]3(C)C4)[nH]c2c1)N1CCCOC1=O [Example 11, (S)-N-(4-fluoro-2-((4aS,5aR)-5a-methyl-1,4,4a,5,5a,6-hexahydrocyclopropa[f]indazol-3-yl)-1H-benzo[d]imidazol-6-yl)-N-methyl-2-(2-oxo-1,3-oxazinan-3-yl)propenamide] | 31 | 324 |
| Cc1cc2nc(-c3n[nH]c4c3C[C@@H]3C[C@]3(C)C4)[nH]c2cc1N(C)C(=O)C1(F)CCOCC1 [Example 12, 4-fluoro-N-methyl-N-(5-methyl-2-((4aS,5aR)-5a-methyl-1,4,4a,5,5a,6-hexahydrocyclopropa[f]indazol-3-yl)-1H-benzo[d]imidazol-6-yl)tetrahydro-2H-pyran-4-carboxamide] | 7 | 47 |
| Cc1cc2nc(-c3n[nH]c4c3C[C@@H]3C[C@]3(C)C4)[nH]c2cc1N(C)C(=O)C1C[C@@H]2[C@H](C1)C2(F)F (stereo partly drawn) [Example 13, (1R,5S)-6,6-difluoro-N-methyl-N-(5-methyl-2-((4aS,5aR)-5a-methyl-1,4,4a,5,5a,6-hexahydrocyclopropa[f]indazol-3-yl)-1H-benzo[d]imidazol-6-yl)bicyclo[3.1.0]hexane-3-carboxamide] | 7 | 49 |
| Cc1cc2[nH]c(-c3n[nH]c4c3C[C@@H]3C[C@]3(C)C4)nc2cc1N(C)C(=O)C(C)N1CCCCC1 (stereo partly shown) [Example 14] | 47 | 196 |

Results, then the molecule that gave them:

| IC50 [1] [nM] | IC50 [2] [nM] | Compound |
| --- | --- | --- |
| 42 | 166 | Cc1cc2[nH]c(-c3n[nH]c4c3C[C@@H]3C[C@]3(C)C4)nc2cc1N(C)C(=O)C(C)N1CCCOCC1 (stereo partly drawn) [Example 15, N-methyl-N-(6-methyl-2-((4aS,5aR)-5a-methyl-1,4,4a,5,5a,6-hexahydrocyclopropa[f]indazol-3-yl)-1H-benzo[d]imidazol-5-yl)-2-(1,4-oxazepan-4-yl)propenamide] |
| 23 | 118 | CCc1cc2[nH]c(-c3n[nH]c4c3C[C@@H]3C[C@]3(C)C4)nc2cc1N(C)C(C)=O [Example 16, N-(6-ethyl-2-((4aS,5aR)-5a-methyl-1,4,4a,5,5a,6-hexahydrocyclopropa[f]indazol-3-yl)-1H-benzo[d]imidazol-5-yl)-N-methylacetamide] |
| 54 | 370 | Cc1cc2[nH]c(-c3n[nH]c4c3C[C@@H]3C[C@]3(C)C4)nc2cc1N(C)C(=O)C(C)N1CCCC1=O (stereo partly drawn) [Example 18, N-Methyl-N-(5-methyl-2-((4aS,5aR)-5a-methyl-1,4,4a,5,5a,6-hexahydrocyclopropa[f]indazol-3-yl)-1H-benzo[d]imidazol-6-yl)-2-(2-oxopyrrolidin-1-yl)propenamide] |
| 8 | 67 | Cc1cc2[nH]c(-c3n[nH]c4c3C[C@@H]3C[C@]3(C)C4)nc2cc1N(C)C(=O)C1CC1 [Example 19, N-Methyl-N-(5-methyl-2-((4aS,5aR)-5a-methyl-1,4,4a,5,5a,6-hexahydrocyclopropa[f]indazol-3-yl)-1H-benzo[d]imidazol-6-yl)cyclopropanecarboxamide] |
| 4 | 59 | Cc1cc2[nH]c(-c3n[nH]c4c3C[C@@H]3C[C@]3(C)C4)nc2cc1N(C)C(=O)CN1CCCCC1=O [Example 20, N-Methyl-N-(5-methyl-2-((4aS,5aR)-5a-methyl-1,4,4a,5,5a,6-hexahydrocyclopropa[f]indazol-3-yl)-1H-benzo[d]imidazol-6-yl)-2-(2-oxopiperidin-1-yl)acetamide] |
| 4 | 79 | CC(=O)N(C)CC(=O)N(C)c1cc2nc(-c3n[nH]c4c3C[C@@H]3C[C@]3(C)C4)[nH]c2cc1C [Example 21, N-Methyl-N-(5-methyl-2-((4aS,5aR)-5a-methyl-1,4,4a,5,5a,6-hexahydrocyclopropa[f]indazol-3-yl)-1H-benzo[d]imidazol-6-yl)-2-(N-methylacetamido)acetamide] |
| 5 | 43 | Cc1cc2[nH]c(-c3n[nH]c4c3C[C@@H]3C[C@]3(C)C4)nc2cc1N(C)C(=O)C(C)C [Example 22, N-Methyl-N-(5-methyl-2-((4aS,5aR)-5a-methyl-1,4,4a,5,5a,6-hexahydrocyclopropa[f]indazol-3-yl)-1H-benzo[d]imidazol-6-yl)isobutyramide] |
